The values that follow come from US6376478B1, “Pharmaceutical compositions and methods for treating anxiety, anxiety disorders and memory impairment using naaladase inhibitors” (Guilford Pharmaceuticals Inc., priority 1999, dated 2002).

One experiment concerns the target NAALADase (Homo sapiens, UniProt Q04609). In words: In vitro inhibition of NAALADase activity. The format is biochemical.
The nature of experiment [1]: Passive avoidance anxiolytic model (shuttlebox, latency to cross). Type of experiment: in vivo. The note with it: for Latency to Cross, Acquisition Trial, MEAN / Latency to Cross, Acquisition Trial, individual animals: day prior to dosing; for Latency to Cross, Acquisition Trial, individual animals / Latency to Cross, Retention Trial, individual animals: 100 mg/kg; for performance compared with flurazepam in passive avoidance: in some experiments. The text has this: The passive avoidance test consists of an acquisition and a retention trial. On the day prior to dosing, the animal is placed into the shuttlebox and allowed to acclimate. A conditioned stimulus (light) is presented for approximately 100 seconds. When the animal crosses to the dark compartment, a mild (0.5 mA) footshock is presented until the animal returns to the lighted compartment or for approximately 10 seconds. Animals failing to cross during acquisition trial is randomly replaced. The day following acquisition, animals are administered test article, saline or flurazepam 10 minutes prior to being placed in the shuttlebox and tested for retention as described above. Latency to cross (in seconds) is recorded.

Setting [2] is: Compound 2 100 mg/kg IP group, first study (animals 31-45).
[3] abbreviates: Compound 2 100 mg/kg IP group, second study (animals 103-414).

The structures appear in SMILES notation. Values joined by “and” are separate entries in the source; they are usually repeats but may differ in a detail not shown here. Equal entries are not always repeated. Marks after values point to notes of the source that are not given here.

Chain of NAALADase (Q04609 whole entry): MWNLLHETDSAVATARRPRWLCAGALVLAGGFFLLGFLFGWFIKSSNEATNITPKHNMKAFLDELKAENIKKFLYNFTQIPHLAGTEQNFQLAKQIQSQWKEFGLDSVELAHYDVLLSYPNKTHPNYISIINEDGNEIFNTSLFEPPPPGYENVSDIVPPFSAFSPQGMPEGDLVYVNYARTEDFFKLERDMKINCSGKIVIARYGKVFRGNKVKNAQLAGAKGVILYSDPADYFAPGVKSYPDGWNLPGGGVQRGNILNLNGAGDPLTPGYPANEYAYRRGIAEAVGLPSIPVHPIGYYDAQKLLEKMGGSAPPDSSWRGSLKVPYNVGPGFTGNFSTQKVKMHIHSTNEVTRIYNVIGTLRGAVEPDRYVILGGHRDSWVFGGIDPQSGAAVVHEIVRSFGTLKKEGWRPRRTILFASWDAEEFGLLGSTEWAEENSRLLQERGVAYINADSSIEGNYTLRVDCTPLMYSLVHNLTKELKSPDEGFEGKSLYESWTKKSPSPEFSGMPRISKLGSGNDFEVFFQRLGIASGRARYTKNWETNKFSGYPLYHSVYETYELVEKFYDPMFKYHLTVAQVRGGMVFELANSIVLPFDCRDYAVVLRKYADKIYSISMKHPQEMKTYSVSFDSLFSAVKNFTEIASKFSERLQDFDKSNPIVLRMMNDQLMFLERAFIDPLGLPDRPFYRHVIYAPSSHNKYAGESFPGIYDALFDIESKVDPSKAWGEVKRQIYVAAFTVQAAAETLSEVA

As usually defined, the Ki is a measure of affinity in units of concentration, obtained from inhibition or displacement. A high value points to lower affinity. In turn, `O=C(O)CCC(CC(S)c1cccc2ccccc12)C(=O)O` (stereo not drawn) had a Ki at NAALADase of 10000 nM. That is a double-digit micromolar value.
`O=C(O)CCC(CP(=O)(O)Cc1ccccc1)C(=O)O` (stereo not drawn) yielded a Ki at NAALADase of 53 nM.
`O=C(O)CCC(CP(=O)(O)c1ccccc1)C(=O)O` (stereo not drawn): the Ki on NAALADase came out at 36 nM.
Still for that read-out and setting: under `CCCCP(=O)(O)CC(CCC(=O)O)C(=O)O` (stereo not drawn) stands 114 nM; under `Cc1cccc(P(=O)(O)CC(CCC(=O)O)C(=O)O)c1` (stereo not drawn), 180 nM.
Still for that read-out and setting: under `O=C(O)CCC(CP(=O)(O)CCc1ccccc1)C(=O)O` (stereo not drawn) stands 148 nM.
Same read-out and setting: the same measure for `O=C(O)CCC(CP(=O)(O)CCCc1ccccc1)C(=O)O` (stereo not drawn): 232 nM; for `O=C(O)CCC(CP(=O)(O)c1ccc(F)cc1)C(=O)O` (stereo not drawn): 532 nM; for `CP(=O)(O)CC(CCC(=O)O)C(=O)O` (stereo not drawn): 1100 nM.
`Cc1ccc(CP(=O)(O)CC(CCC(=O)O)C(=O)O)cc1` (stereo not drawn): the Ki at NAALADase was determined as 68 nM.
The same measure, in the same setting: the same measure for `O=C(O)CCC(CP(=O)(O)Cc1ccc(F)cc1)C(=O)O` (stereo not drawn): 70 nM; for `O=C(O)CCC(CP(=O)(O)Cc1ccccc1F)C(=O)O` (stereo not drawn): 145 nM.
On the same count and under the same terms, under `Cc1ccc(P(=O)(O)CC(CCC(=O)O)C(=O)O)cc1` (stereo not drawn) stands 204 nM.
Same read-out and setting: under `O=C(O)C(CCc1ccccc1)CP(=O)(O)O` (stereo not drawn) stands 199 nM; under `O=C(O)CCCC(CP(=O)(O)O)C(=O)O` (stereo not drawn), 185 nM.
At NAALADase, `O=C(O)CCC(CP(=O)(O)Cc1ccc(OCc2ccccc2)cc1)C(=O)O` (stereo not drawn) registered a Ki of 177 nM.
`O=C(O)CCC(CP(=O)(O)Cc1cccc(C(F)(F)F)c1)C(=O)O` (stereo not drawn): the Ki on NAALADase is 22 nM.
Regarding `O=C(O)CCC(CP(=O)(O)Cc1ccccc1C(F)(F)F)C(=O)O` (stereo not drawn), the Ki on NAALADase is 92 nM.
Compound `O=C(O)CCC(CP(=O)(O)Cc1ccc(O)cc1)C(=O)O` (stereo not drawn) displayed an inhibition constant Ki on NAALADase of 117 nM.
Take `CC(CP(=O)(O)O)C(=O)O` (stereo not drawn): on NAALADase, the inhibition constant (Ki) amounted to 2 nM. This Ki lies about 58-fold lower than the previous one.
The same measure, in the same setting: under `O=C(O)C(Cc1ccccc1)CP(=O)(O)O` (stereo not drawn) stands 548 nM.
On the same count and under the same terms, the same measure for `O=C(O)CCP(=O)(O)O`: 234 nM; for `COC(=O)c1ccc(CP(=O)(O)CC(CCC(=O)O)C(=O)O)cc1` (stereo not drawn): 740 nM.
For the compound `CC(C)(C)OC(=O)CCC(CP(=O)(CC(CCC(=O)O)C(=O)O)OC(C)(C)C)C(=O)OC(C)(C)C` (stereo not drawn), at NAALADase, the inhibition constant (Ki) was found to be 4250 nM.
On the same count and under the same terms, under `O=C(O)CCC(CP(=O)(O)CC(CCC(=O)OCc1ccccc1)C(=O)OCc1ccccc1)C(=O)O` (stereo not drawn) stands 13 nM.
Same read-out and setting: the same measure for `O=C(O)CCC(CP(=O)(O)CC(CCC(=O)O)C(=O)O)C(=O)O` (stereo not drawn): 0.6 nM; for `CC(CP(=O)(O)CC(CCC(=O)O)C(=O)O)C(=O)OCc1ccccc1` (stereo not drawn): 95 nM.
The same measure, in the same setting: under `CC(CP(=O)(O)CC(CCC(=O)O)C(=O)O)C(=O)O` (stereo not drawn) stands 2 nM; under `O=C(O)CCC(CP(=O)(O)C(NCc1ccccc1)c1ccccc1)C(=O)O` (stereo not drawn), 313 nM.
Consider `O=C(O)CCC(CP(=O)(O)C(NC(=O)O)c1ccccc1)C(=O)O` (stereo not drawn), for which, on NAALADase, the affinity corresponds to a Ki of 2000 nM.
Same read-out and setting: under `O=C(O)CCC(CP(=O)(O)CNCc1ccccc1)C(=O)O` (stereo not drawn) stands 52 nM; under `CC(=O)NCP(=O)(O)CC(CCC(=O)O)C(=O)O` (stereo not drawn), 118 nM.
Same read-out and setting: under `O=C(O)CCC(CP(=O)(O)CN(Cc1ccccc1)Cc1ccccc1)C(=O)O` (stereo not drawn) stands 175 nM; under `O=C(O)CCC(CP(=O)(O)CN1C(=O)c2ccccc2C1=O)C(=O)O` (stereo not drawn), 34 nM; under `O=C(O)CCC(CP(=O)(O)CNC(=O)c1ccccc1)C(=O)O` (stereo not drawn), 142 nM.
Still for that read-out and setting: under `O=C(O)CCC(CP(=O)(O)CNS(=O)(=O)c1ccccc1)C(=O)O` (stereo not drawn) stands 90 nM.
As to `O=C(O)CCC(CP(=O)(O)CNc1ccc(F)cc1)C(=O)O` (stereo not drawn), the affinity at NAALADase, expressed as Ki, was 9 nM.
The compound `COc1ccc(NCP(=O)(O)CC(CCC(=O)O)C(=O)O)cc1` (stereo not drawn) had a Ki at NAALADase of 2 nM.
On the same count and under the same terms, the same measure for `Cc1ccc(NCP(=O)(O)CC(CCC(=O)O)C(=O)O)cc1` (stereo not drawn): 5 nM.
On the same count and under the same terms, the same measure for `CC(C)(C)c1ccc(NCP(=O)(O)CC(CCC(=O)O)C(=O)O)cc1` (stereo not drawn): 2 nM; for `O=C(O)CCC(CP(=O)(O)CNC(=S)Nc1ccccc1)C(=O)O` (stereo not drawn): 75 nM.
At NAALADase, `CC(CS)CC(CCC(=O)O)C(=O)O` (mixture of isomers) [2-(3-sulfanyl-2-methylpropyl)pentanedioic acid] came in with a Ki of 239 nM.
Take `CCC(CS)C(CCC(=O)O)C(=O)O` (stereo not drawn) [2-(1-ethyl-2-sulfanylethyl)pentanedioic acid]: the Ki on NAALADase came out at 1550 nM.
On to `CC(CS)C(CCC(=O)O)C(=O)O` (stereo not drawn) [2-(1-methyl-2-sulfanylethyl)penanedioic acid], for which, on NAALADase, the Ki is 843 nM.
On the same count and under the same terms, the same measure for `CCCCC(S)CC(CCC(=O)O)C(=O)O` (stereo not drawn) [2-(2-sulfanylhexyl)pentanedioic acid]: 4750 nM.
Turning to `O=C(O)CCC(CCCS)C(=O)O` (stereo not drawn) [2-(3-sulfanylpropyl)pentanedioic acid], the “anxiolytic properties in passive avoidance” value (from here on “anxiolytic properties”) in experiment [1] (Example 15, written in present tense) is on record as “exhibit anxiolytic properties”.
Take `O=C(O)CC(CP(=O)(O)O)C(=O)O` (stereo not drawn) [2-(phosphonomethyl) succinic acid]: affinity on NAALADase was put at a Ki of 700 nM.
`O=C(O)CCC(CCSSCCC(CCC(=O)O)C(=O)O)C(=O)O` (stereo not drawn) [2-[2-[(3,5-dicarboxypentyl)dithio]ethyl]pentanedioic acid] came in with a Ki at NAALADase of 16500 nM.
As to `O=C(O)CCC(CP(=O)(O)CCC(=O)O)C(=O)O` (stereo not drawn) [2-[[(2-carboxyethyl)hydroxyphosphinyl]methyl]pentanedioic acid], the affinity at NAALADase, expressed as Ki, was 2 nM.
For `O=C(O)CCC(CP(=O)(O)Cc1c(F)c(F)c(F)c(F)c1F)C(=O)O` (stereo not drawn) [Compound 2, 2-[[(2,3,4,5,6-pentafluorobenzyl)hydroxyphosphinyl]methyl]pentanedioic acid], the “Latency to Cross, Acquisition Trial, MEAN” value in experiment [1] (setting [2]) turned out to be 6.7 s; in experiment [1] (setting [3]), 7.5 s. In addition, the “Latency to Cross, Acquisition Trial, individual animals” value in experiment [1] (setting [2]) was 4.0 seconds and 0.1 seconds (2×) and 14.9 seconds and 5.0 seconds and 6.4 seconds and 9.5 seconds and 4.6 seconds and 5.7 seconds and 13.0 seconds and 5.1 seconds and 6.2 seconds and 10.1 seconds and 4.3 seconds and 11.4 seconds; in experiment [1] (setting [3]), 0.0 s and 11.4 s and 12.1 s and 1.5 s and 1.6 s and 7.0 s and 6.8 s and 20.0 s and 2.3 s and 0.6 s and 9.6 s and 3.2 s and 10.4 s and 5.7 s and 18.7 s. In addition, the “Latency to Cross, Retention Trial, MEAN” value in experiment [1] (Compound 2 100 mg/kg IP, first study (animals 31-45), significance difference compared to Group 1, p ≦ 0.05) was 66.8^a seconds; in experiment [1] (Compound 2 100 mg/kg IP, second study (animals 103-414), animal 406 omitted), 29.6 s. In addition, the “Latency to Cross, Retention Trial, individual animals” value in experiment [1] (Compound 2 100 mg/kg IP, first study (animals 31-45), stimulus about 100 seconds) was 9.8 seconds and 7.1 seconds and 4.8 seconds and 100.0 seconds (8×) and 88.4 seconds and 7.8 seconds and 15.8 seconds and 68.4 seconds; in experiment [1] (Compound 2 100 mg/kg IP, second study (animals 103-414), animal 406 omitted from statistical analysis) it was 3.1 seconds and 33.9 seconds and 100.0 seconds (2×) and 13.2 seconds and 6.6 seconds and 39.4 seconds and 7.9 seconds and 33.2 seconds and 8.4 seconds and 41.5 seconds and 19.5 seconds and 7.3 seconds and 100.0^b seconds and 0.3 seconds. In experiment [1] (Example 14), the “anxiolytic properties” value is recorded as “exhibit anxiolytic properties”. The “performance compared with flurazepam in passive avoidance” value in experiment [1] (Example 14) is “performed better than the known anxiolytic agent, flurazepam”.
Turning to `O=C(O)CCC(CP(=O)(O)O)C(=O)O` (stereo not drawn) [Compound 3, 2-(phosphonomethyl)pentanedioic acid], the “Latency to Cross, Retention Trial, MEAN” value in experiment [1] (Compound 3 100 mg/kg IP) came to 43.0 s. Also, in experiment [1] (Compound 3 100 mg/kg IP group), the “Latency to Cross, Acquisition Trial, MEAN” value worked out at 7.8 s; the “Latency to Cross, Acquisition Trial, individual animals” value is 11.8 s and 11.5 s and 9.2 s and 0.8 s and 0.6 s and 2.9 s and 18.6 s and 9.3 s and 0.2 s and 2.0 s and 5.9 s and 6.1 s and 25.0 s and 2.2 s and 10.5 s. Besides, the “Latency to Cross, Retention Trial, individual animals” value in experiment [1] (Compound 3 100 mg/kg IP, stimulus about 100 seconds) is 100.0 seconds (4×) and 4.6 seconds and 9.9 seconds and 47.4 seconds and 12.9 seconds and 20.6 seconds and 6.6 seconds and 33.0 seconds and 89.8 seconds and 5.2 seconds and 5.9 seconds and 8.5 seconds. Further, in experiment [1] (Example 14), the “anxiolytic properties” value is recorded as “exhibit anxiolytic properties” and the “performance compared with flurazepam in passive avoidance” value is “performed better than the known anxiolytic agent, flurazepam”.
For `O=C(O)CCC(CP(=O)(O)Cc1c(F)c(F)c(F)c(F)c1F)C(=O)O` (stereo not drawn) [drawing 45], the affinity on NAALADase corresponds to a Ki of 23 nM.
